From paper PMC10066365, “Nemacol is a small molecule inhibitor of C. elegans vesicular acetylcholine transporter with anthelmintic potential” (Nature Communications, 2023)
“And” between values parts separate entries of the source, which are not always exact repeats. Equal values may be shown once.

What was measured:
Pristionchus pacificus = Pristionchus pacificus motor disruption dose-response on solid media, 1 h; details: for EC50: Pristionchus pacificus, 1 h, read-out: P. pacificus motor disruption EC50; for mean % any phene: any phenotype (coiled, jerky-Unc or paralyzed) at one hour; for mean % any phene / mean % any phene (coiled, jerky-Unc or paralyzed): mean of three biological replicates; for rep 1 atypical locomotion / rep 1 coiled / rep 1 no phene / rep 1 paralyzed / rep 2 atypical locomotion / rep 2 coiled / rep 2 no phene / rep 2 paralyzed / rep 3 atypical locomotion / rep 3 coiled / rep 3 no phene / rep 3 paralyzed: count of 20 animals per trial, one hour; for mean % any phene (coiled, jerky-Unc or paralyzed): Pristionchus pacificus young adults
Method: Locomotor phenotype analyses were done in 24-well plates with 1 mL of MYOB substrate (27.5 g Trizma HCl, 12 g Trizma Base, 230 g bacto tryptone, 10 g NaCl, 0.4 g cholesterol (95%)) seeded with 25 µL of OP50 Escherichia coli on each well. Each compound was added to the MYOB substrate before pouring to achieve the desired final concentrations of 30 µM or 60 µM after diffusion through the media. Synchronized young adult worms are transferred into each well using a platinum wire pick. A Leica MZ75 stereomicroscope was used to visualize the movement of worms on the solid substrate. The specific dominant locomotor phenotype (i.e. ‘Punc’, ‘paralyzed’, ‘coiler’ or ‘wild-type locomotion’) was scored after the touch on the head with a platinum wire over a ~3–5 s of observation. […] Coiled animals were not scored as paralyzed despite sometimes not responding to light touch.

[1] = system: Dirofilaria immitis microfilariae; experiment: Dirofilaria immitis microfilariae immobility assay (DiroImager, 72 h); details: Dirofilaria immitis microfilariae
In short: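 About 250 freshly purified microfilariae of the Missouri isolate per well in supplemented RPMI 1640, exposed to compound for 72 h. Motility scored by automated whole-plate optical imaging; medium with 1% DMSO as negative control.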

C. elegans = C. elegans motor phenotype scoring on solid media (Punc/jerky-unc, coiled, paralyzed), wild-type young adults; type: in vivo, Caenorhabditis elegans; details: for atypical locomotion (number of animals) / coiled (number of animals) / no phene (number of animals) / paralyzed (number of animals) / any phene: mean % fraction of young adults exhibiting any phenotype (coiled, jerky-Unc or paralyzed): one hour; for atypical locomotion (number of animals) / coiled (number of animals) / no phene (number of animals) / paralyzed (number of animals): young adults, 20 animals per trial, single technical replicate; for any phene: mean % fraction of young adults exhibiting any phenotype (coiled, jerky-Unc or paralyzed): mean of three biological replicates; for EC50: Caenorhabditis elegans, any motor phenotype after 1 h on solid media, ± 95% CI, read-out: C. elegans - motor disruption EC50
[2] = system: Dirofilaria immitis L3/L4; experiment: Dirofilaria immitis L3/L4 motility assay (DiroImager, 72 h); details: Dirofilaria immitis L4

Which EC50 (Pristionchus pacificus) does the source give for `FC(F)(F)c1cccc(N2CCN(CC3CCCCC3)CC2)c1` [Nemacol-49] here?
The EC50 was > 60 µM.

What about the “mean % any phene” value (Pristionchus pacificus; conc 3.75) of the same molecule?
The value was 0%.

What about the “rep 1 atypical locomotion” value (Pristionchus pacificus; conc 3.75) of the same molecule?
The value was 0.

What about the “rep 1 coiled” value (Pristionchus pacificus; conc 3.75) of the same molecule?
The value was 0.

And the “rep 1 no phene” value (Pristionchus pacificus; conc 3.75)?
The value was 20.

And the “rep 1 paralyzed” value (Pristionchus pacificus; conc 3.75)?
The value was 0.

And the “rep 2 atypical locomotion” value (Pristionchus pacificus; conc 3.75)?
The value was 0.

And the “rep 2 coiled” value (Pristionchus pacificus; conc 3.75)?
Its value is 0.

What about the “rep 2 no phene” value (Pristionchus pacificus; conc 3.75) of the same molecule?
Its value is 20.

And the “rep 2 paralyzed” value (Pristionchus pacificus; conc 3.75)?
The value was 0.

And the “rep 3 atypical locomotion” value (Pristionchus pacificus; conc 3.75)?
The value was 0.

And the “rep 3 coiled” value (Pristionchus pacificus; conc 3.75)?
Its value is 0.

And the “rep 3 no phene” value (Pristionchus pacificus; conc 3.75)?
The value was 20.

And the “rep 3 paralyzed” value (Pristionchus pacificus; conc 3.75)?
Its value is 0.

And the “mean % any phene” value (Pristionchus pacificus; conc 15)?
Its value is 0%.

And the “rep 1 atypical locomotion” value (Pristionchus pacificus; conc 15)?
The value was 0.

And the “rep 1 coiled” value (Pristionchus pacificus; conc 15)?
The value was 0.

And the “rep 1 no phene” value (Pristionchus pacificus; conc 15)?
Its value is 20.

What about the “rep 1 paralyzed” value (Pristionchus pacificus; conc 15) of the same molecule?
Its value is 0.

What about the “rep 2 atypical locomotion” value (Pristionchus pacificus; conc 15) of the same molecule?
Its value is 0.

And the “rep 2 coiled” value (Pristionchus pacificus; conc 15)?
The value was 0.

What about the “rep 2 no phene” value (Pristionchus pacificus; conc 15) of the same molecule?
Its value is 20.

And the “rep 2 paralyzed” value (Pristionchus pacificus; conc 15)?
Its value is 0.

And the “rep 3 atypical locomotion” value (Pristionchus pacificus; conc 15)?
Its value is 0.

And the “rep 3 coiled” value (Pristionchus pacificus; conc 15)?
The value was 0.

And the “rep 3 no phene” value (Pristionchus pacificus; conc 15)?
Its value is 20.

And the “rep 3 paralyzed” value (Pristionchus pacificus; conc 15)?
Its value is 0.

And the “mean % any phene” value (Pristionchus pacificus; conc 60)?
Its value is 12.5%.

What about the “rep 1 atypical locomotion” value (Pristionchus pacificus; conc 60) of the same molecule?
Its value is 2.

What about the “rep 1 coiled” value (Pristionchus pacificus; conc 60) of the same molecule?
Its value is 0.

And the “rep 1 no phene” value (Pristionchus pacificus; conc 60)?
The value was 18.

What about the “rep 1 paralyzed” value (Pristionchus pacificus; conc 60) of the same molecule?
The value was 0.

And the “rep 2 coiled” value (Pristionchus pacificus; conc 60)?
Its value is 0.

What about the “rep 2 no phene” value (Pristionchus pacificus; conc 60) of the same molecule?
Its value is 17 and 19.

What about the “rep 2 paralyzed” value (Pristionchus pacificus; conc 60) of the same molecule?
The value was 0.

What about the “rep 3 atypical locomotion” value (Pristionchus pacificus; conc 60) of the same molecule?
Its value is 4 and 3.

And the “rep 3 coiled” value (Pristionchus pacificus; conc 60)?
The value was 0.

And the “rep 3 no phene” value (Pristionchus pacificus; conc 60)?
Its value is 16 and 17.

And the “rep 3 paralyzed” value (Pristionchus pacificus; conc 60)?
The value was 0.

What about the “% effect (motility), DIROIM MF” value ([1]; 0.016 µM) of the same molecule?
The value was 0%.

And the “% effect (motility), DIROIM MF” value ([1]; 0.08 µM)?
Its value is 0%.

And the “% effect (motility), DIROIM MF” value ([1]; 0.4 µM)?
The value was 0%.

And the “% effect (motility), DIROIM MF” value ([1]; 2 µM)?
The value was 0%.

And the “% effect (motility), DIROIM MF” value ([1]; 10 µM)?
The value was 0%.

And the “atypical locomotion (number of animals)” value (C. elegans; 3.75uM)?
Its value is 3 and 2 and 1.

And the “coiled (number of animals)” value (C. elegans; 3.75uM)?
The value was 0.

What about the “no phene (number of animals)” value (C. elegans; 3.75uM) of the same molecule?
The value was 17 and 18 and 19.

What about the “paralyzed (number of animals)” value (C. elegans; 3.75uM) of the same molecule?
The value was 0.

And the “any phene: mean % fraction of young adults exhibiting any phenotype (coiled, jerky-Unc or paralyzed)” value (“any phene: mean % fraction” for short) (C. elegans; 3.75uM)?
Its value is 9.167%.

What about the “atypical locomotion (number of animals)” value (C. elegans; 15uM) of the same molecule?
Its value is 12 and 13 and 9.

And the “coiled (number of animals)” value (C. elegans; 15uM)?
Its value is 3 and 1 and 2 and 0.

What about the “no phene (number of animals)” value (C. elegans; 15uM) of the same molecule?
The value was 5 and 7 and 10 and 8.

What about the “paralyzed (number of animals)” value (C. elegans; 15uM) of the same molecule?
Its value is 0.

What about the “any phene: mean % fraction” value (C. elegans; 15uM) of the same molecule?
Its value is 65%.

What about the “atypical locomotion (number of animals)” value (C. elegans; 60uM) of the same molecule?
Its value is 13 and 16 and 10 and 14 and 15.

What about the “coiled (number of animals)” value (C. elegans; 60uM) of the same molecule?
The value was 7 and 4 and 10 and 6 and 1 and 3.

And the “no phene (number of animals)” value (C. elegans; 60uM)?
The value was 0 and 5 and 2.

And the “paralyzed (number of animals)” value (C. elegans; 60uM)?
The value was 0.

And the “any phene: mean % fraction” value (C. elegans; 60uM)?
Its value is 94.1667%.

And the EC50 (C. elegans)?
The EC50 was 11.2 ± 1.6 µM.

And the “% effect (motility), DIROIM L4” value ([2]; 10 µM)?
The value was 0%.

And the “% effect (motility), DIROIM L4” value ([2]; 50 µM)?
Its value is 10%.

Which results are given for `Fc1ccc(N2CCN(C3CCCCCC3)CC2)cc1` [Nemacol-51]?
mean % any phene (coiled, jerky-Unc or paralyzed) (Pristionchus pacificus; conc 3.75, observed at one hour): 2.5%; mean % any phene (coiled, jerky-Unc or paralyzed) (Pristionchus pacificus; conc 15, observed at one hour): 60%; mean % any phene (coiled, jerky-Unc or paralyzed) (Pristionchus pacificus; conc 60, observed at one hour): 85%; EC50 (Pristionchus pacificus): 13.2 ± 3 µM; % effect (motility), DIROIM MF ([1]; 0.016 µM): 0%; % effect (motility), DIROIM MF ([1]; 0.08 µM): 0%; % effect (motility), DIROIM MF ([1]; 0.4 µM): 0%; % effect (motility), DIROIM MF ([1]; 2 µM): 0%; % effect (motility), DIROIM MF ([1]; 10 µM): 0%; atypical locomotion (number of animals) (C. elegans; 3.75uM): 7 and 4 and 2 and 14 and 17; coiled (number of animals) (C. elegans; 3.75uM): 0 and 4 and 2; no phene (number of animals) (C. elegans; 3.75uM): 13 and 16 and 18 and 2 and 1; paralyzed (number of animals) (C. elegans; 3.75uM): 0; atypical locomotion (number of animals) (C. elegans; 15uM): 13 and 14 and 15 and 6 and 7; coiled (number of animals) (C. elegans; 15uM): 1 and 3 and 5 and 2 and 8; no phene (number of animals) (C. elegans; 15uM): 6 and 2 and 3 and 0; paralyzed (number of animals) (C. elegans; 15uM): 0 and 1 and 6 and 8; any phene: mean % fraction of young adults exhibiting any phenotype (coiled, jerky-Unc or paralyzed) (C. elegans; 15uM): 89.1667%; atypical locomotion (number of animals) (C. elegans; 60uM): 3 and 1 and 4 and 0; coiled (number of animals) (C. elegans; 60uM): 14 and 17 and 11 and 15; no phene (number of animals) (C. elegans; 60uM): 0; paralyzed (number of animals) (C. elegans; 60uM): 3 and 2 and 5; EC50 (C. elegans): 4.2 ± 2.3 µM; % effect (motility), DIROIM L4 ([2]; 10 µM): 0%; % effect (motility), DIROIM L4 ([2]; 50 µM): 10%
